Source: patent publication US20190151271A1, “COMPOSITIONS AND METHODS FOR TREATMENT OF EYE DISEASES” (The Johns Hopkins University, priority 2017, published 2019)

Tests used:
[1] = Evaluation of retinal penetration of NACA: NACA/NAC levels in plasma, aqueous, vitreous and retina after 20 mg/mL NACA in drinking water for 7 days; type: in vivo, mice (rd10 and wild type C57/BL6); conditions: for mean level in aqueous humor compared with plasma: 20 mg/mL NACA in drinking water (FIG. 2); for measurability in the retina: animals treated with NACA, N=20 eyes per strain (FIG. 4); for mean level in retina compared with plasma: either type of mice (FIG. 4 compared to FIG. 1); for mean retina levels: 20 mg/mL NACA in drinking water P28-P35, estimated dose 60-80 mg/day
Description: The objective of this study was to determine retinal levels of NACA/NAC after administration of 20 mg/mL NACA in drinking water for 7 days in a mouse model of RP and in wild type mice. This experiment was designed to provide rapid confirmation that NACA and/or NAC penetrate the retina following oral administration and to allow comparison of the tissue levels of NACA and NAC in vitreous and retina to plasma. It also provided a comparison of retinal penetration in mice with RP and wild type mice to determine if the breakdown in the blood-retinal barrier in RP affects the levels of NACA in the retina.
Animals and Treatments. Mice were treated in accordance with the recommendations of the Association for Research in Vision and Ophthalmology. Litters of homozygous rd10/rd10 mice (B6.CXB1-Pde6brd10/J) and wild type C57/BL6 mice (The Jackson Laboratory, Bar Harbor, Me.) were used for these studies.
Starting on post-natal day 28 (P28), animals were given normal drinking water (controls, n=10 for each strain) or water containing 20 mg/ml NACA (n=10 for each strain).
Analysis of NACA and NAC. Upon sacrifice of the mice on P35 (post-natal day 35), retina, aqueous, vitreous and plasma were collected, weighed, and stabilized as quickly as possible and stored at −80° C. prior to shipment to AIT Bioscience, LLC (Indianapolis, Ind.). The qualified bioanalytical method (BAM.0445.01) for the quantitation of total NAC NACA in K2EDTA was based on derivatization, protein precipitation extraction, and LC-MS/MS instrumental analysis. Any disulfides were reduced to free thiols and subsequently reacted with 2-chloro-1-methylpyridinium iodide (CMPI) to form stable thioethers. The thioether derivatives were detected by LC-MS/MS. Stable label isotope internal standards were used. The method covered a concentration range from 50.0 to 50,000 ng/mL.
Evaluation of Retinal Penetration of NACA. To determine retinal levels of NACA/NAC after administration of 20 mg/mL NACA in drinking water for 7 days. This experiment was designed to provide rapid confirmation that NACA penetrates the retina following oral administration and to compare levels of NACA and its major metabolite, NAC. in retina, aqueous humor, vitreous humor and plasma. This experiment was also designed to evaluate if the breakdown in the blood-retinal barrier in RP (simulated by the rd10 mice) affects the levels of NACA in the retina by comparing animals with RP to wild type mice.
Rd10 and C57BL/6 wild type mice began treatment at P28 (post-natal day 28), at P35 mice were euthanized and plasma, vitreous and retina samples were sent to AITBioscences (Indianapolis, Ind.) for determination of NACA and NAC levels by a validated method using high-pressure liquid chromatography with tandem mass spectrometric/mass spectrometric detection (LCMS). Experimental groups: (n=10/group). The research was performed in 4 discrete treatment groups: • 1. Rd10 allowed to freely drink NACA 20 mg/mL-spiked drinking water with measurements at P35; • 2. Rd10 allowed to freely drink untreated water with measurements at P35; • 3. C57/BL6 NACA 20 mg/mL in drinking water measurements at P35; • 4. C57/BL6 allowed to freely drink untreated water with measurements at P35.

[2] = cited from earlier work; for plasma level: rats, within 30 minutes following oral administration of 500 mg/kg NACA; for detection in the brain: within 30 minutes following oral administration of NACA
[3] = system: cone survival; conditions: orally administered; cited from earlier work
[4] = oral formulations; cited from earlier work
[5] = system: human retinal pigment epithelial cells; conditions: cited from earlier work
[6] = system: mice exposed to phototoxic doses of light; conditions: cited from earlier work
[7] = system: rd10 mice; conditions: 7 mg/mL NACA versus 20 mg/mL NAC in drinking water, P35 and P50; cited from earlier work

| Compound | mean level in aqueous humor compared with plasma [1] | measurability in the retina [1] | mean level in retina compared with plasma [1] | plasma level [2] | detection in the brain [2] | cone survival and cone function [3] | systemic bioavailability for oral administration [4] | protection against oxidative stress-induced cellular injury and death [5] | ratio of NACA:NAC in the retina, rd10 mice compared with C57/B16 mice ([1]; 20 mg/mL NACA in drinking water (FIG. 5)) | mean plasma level, rd10 mice compared with wild type ([1]; 20 mg/ml NACA in drinking water (FIG. 1)) | level in vitreous humor ([1]; N=7 or 8 eyes rd10, N=10 eyes C57/B16 (FIG. 3)) | mean concentration in aqueous humor, rd10 mice compared with wild type ([1]; N=8 eyes rd10, N=10 C57/B16 (FIG. 2)) | mean NACA level in plasma compared with NAC level ([1]; both strains, 20 mg/ml NACA in drinking water, N=10 per strain (FIG. 1)) | mean retina levels ([1]; rd10 mice) | mean retina levels ([1]; wild type mice) | retinal pigment epithelial cell integrity, outer nuclear layer cell death, photoreceptor function [6] | protection of scotopic and photopic b-waves and cone density [7] |
| --- | --- | --- | --- | --- | --- | --- | --- | --- | --- | --- | --- | --- | --- | --- | --- | --- | --- |
| CC(=O)N[C@@H](CS)C(=O)O [NAC, N-Acetylcysteine, reference compound] | lower than in plasma | measurable in all animals treated with NACA | higher, in either type of mice, than those observed in plasma | 84.55 ± 6.73 µM | detected in the brain | promotes prolonged cone survival and maintenance of cone function | < 10% | – | – | – | – | – | – | – | – | – | – |
| N-acetylcysteine amide [NACA] | lower than in plasma | measurable in all animals treated with NACA | higher, in either type of mice, than those observed in plasma | 15.07 ± 5.08 µM | detected in the brain | – | – | protected against oxidative stress-induced cellular injury and death | greater in the retina of rd10 mice than in C57/B16 mice | greater in rd10 mice than in the wild type | A similar pattern was observed | higher in rd10 mice than wild type | greater than the NAC levels in both strains of mice | approximately 6.5 μg/g | ~2.4 µg/g | maintained retinal pigment epithelial cell integrity, prevented outer nuclear layer cell death and rescued photoreceptor function | more effective |
